Earlier results as cited in US5849733A, “2-thio or 2-oxo flavopiridol analogs” (Bristol-Myers Squibb Co., priority 1997, dated 1998).

Test system: apoptosis
Conditions: J. Cell Sci., 108, 2897 (1995)

## Cn1cnc2c(NCc3ccccc3)nc(NCCO)nc21 [olomucine]
  synergy with known cytotoxic agents in inducing apoptosis: act synergistically with known cytotoxic agents in inducing apoptosis
